Measurements: US20240194290A1, “HIDDEN ANTIBIOTICS IN THE HUMAN PROTEOME” (THE TRUSTEES OF THE UNIVERSITY OF PENNSYLVANIA, priority 2021, published 2024)
Ends that are not written are not given here.

Columns and labels:
P. aeruginosa PAO1 [1] = test: Skin abscess infection mouse model; assay type: in vivo, Pseudomonas aeruginosa; settings: for anti-infective activity (FIG. 4B): 25 μmol L^−1, P. aeruginosa PAO1; for reduction of bacterial load / bacterial counts: mice, single dose 25 μmol L^−1 to infected area, P. aeruginosa
Description: (§1) FIG. 4. Anti-infective activity and synergistic interactions of encrypted peptides in vivo. (FIG. 4A) Schematic of the skin abscess mouse model used to assess the anti-infective activity of selected encrypted peptides from plasma proteins. […] (FIG. 4C) Mouse weight was monitored throughout the experiment (2 days) to rule out potential toxic effects of the encrypted peptides. (FIG. 4D) Schematic of the neutropenic thigh infection mouse model used to assess the anti-infective activity of selected encrypted peptides from plasma proteins. […] (FIG. 4F) Mouse weight was monitored throughout the experiment (8 days) to rule out potential toxic effects of the encrypted peptides.
To test whether the peptides retain their antimicrobial activity in a complex living system, their properties in two mouse models were assessed. […] Since these peptides are mostly found in plasma, a relevant skin abscess mouse model was used to test their anti-infective activity (FIG. 4A). Mice were infected with bacterial loads of 10^5 and 10^6 cells in 20 μL of the clinically relevant Gram-negative pathogens P. aeruginosa and A. baumannii, respectively (FIG. 4B). […] In order to validate the synergistic effects obtained in vitro (FIG. 3D and FIG. 9), infected mice were treated with combinations of encrypted peptides (FIG. 4B). […] No damage or deleterious effects exerted by the peptides were detected in the mice in any of our experiments.
(§2) Methods: Skin abscess infection mouse model. A. baumannii ATCC19606 and P. aeruginosa strain PAO1 were used to infect the murine skin. Briefly, bacteria were grown in tryptic soy broth (TSB) medium. Subsequently, cells were washed twice with sterile PBS (pH 7.4, 13,000 rpm for 1 min), and resuspended to a final concentration of 1×10^5 and 1×10^6 CFU/20 μL for A. baumannii and P. aeruginosa, respectively. Female CD-1 mice (six-weeks old) were anesthetized with isoflurane and had their backs shaved and a superficial linear skin abrasion was made with a needle in order to damage the stratum corneum and upper-layer of the epidermis. An aliquot of 20 μL containing the bacterial load in PBS was inoculated over each defined area containing the scratch with a pipette tip. […] Animals were euthanized and the area of scarified skin was excised two- and four-days post-infection, homogenized using a bead beater for 20 minutes (25 Hz), and 10-fold serially diluted for CFU quantification. […] Prior to each injection, mice were anesthetized with isoflurane and monitored (respiratory rate and pedal reflexes). Next, we monitored the formation of the abscess and euthanized the mice. The infected area was excised three-days post-infection, homogenized using a bead beater for 20 min (25 Hz), and 10-fold serially diluted for CFU quantification. […]

A. baumannii ATCC19606 = test: Neutropenic thigh infection mouse model; assay type: in vivo, Acinetobacter baumannii; settings: for anti-infective activity (FIG. 4E): alone, A. baumannii ATCC19606; for decrease of bacterial counts compared to untreated controls: mice, 25 μmol L^−1 intramuscular, three days post-treatment, A. baumannii
Description: as §1
Next, the efficacy of the same encrypted peptides (SCUB1-SKE25 and SCUB3-MLP22) was assessed in monotherapy and in combination therapy in a murine thigh infection model (FIG. 4D). This preclinical model is sensitive, standardized, and widely used for assessing antibiotic translatability^43,44. Briefly, mice were rendered neutropenic by cyclophosphamide treatment prior to intramuscular infection with 10^6 cells mL^−1 of the bacterial pathogens P. aeruginosa and A. baumannii (FIG. 4E). Either a single dose of each encrypted peptide (at 25 μmol L^−1) or their combination (also at 25 μmol L^−1) were delivered to the infected site via intramuscular administration. Three days post-treatment, on average the peptides reduced the bacterial load of P. aeruginosa and A. baumannii by 4 and 2 orders of magnitude, respectively, compared to untreated mice.
as §2, with “epidermis.” for “epidermis. An aliquot of 20 μL containing the bacterial load in PBS was inoculated over each defined area containing the scratch with a pipette tip.”

B. fragilis ATCC25285 = test: Outer membrane permeabilization (NPN uptake) assay; assay type: cell-based, Bacteroides fragilis; settings: peptides at MIC
Procedure: (§3) FIG. 10. Membrane permeabilization and depolarization assays for several bacterial strains. […] FIG. 10B: Cytoplasmic membrane depolarization assays performed against P. aeruginosa PAO1 and the gut commensal B. fragilis ATCC25285.
(§4) Methods: Membrane depolarization assays. The cytoplasmic membrane depolarization activity of the peptides was determined by measurements of fluorescence of the membrane potential-sensitive dye, DiSC3(5). Briefly, A. baumannii ATCC19606, P. aeruginosa PAO1 and B. fragilis ATCC25285 were grown at 37° C. with agitation until they reached mid-log phase (OD600=0.5). […] Thereafter, the cells (100 μL) were incubated for 15 min with 20 nmol L^−1 of DiSC3(5) until a stable reduction of fluorescence was achieved, indicating the incorporation of the dye into the bacterial membrane. Membrane depolarization was then monitored by observing the change in the fluorescence emission intensity of the membrane potential-sensitive dye, DiSC3(5) (λex=622 nm, λem=670 nm), after the addition of peptides (100 μL solution at MIC values). […] The membrane permeability of the peptides was determined by using the N-phenyl-1-napthylamine (NPN) uptake assay. […] The background fluorescence was recorded at λex=350 nm and λem=420 nm. […]

P. aeruginosa PAO1 [2] = test: Outer membrane permeabilization (NPN uptake) assay; assay type: cell-based, Pseudomonas aeruginosa; settings: peptides at MIC
Procedure: as §3, §4

S. epidermidis = test: Outer membrane permeabilization (NPN uptake) assay; assay type: cell-based, Staphylococcus epidermidis; settings: peptides at MIC
Procedure: as §3, §4

Row | Sequence | anti-infective activity (FIG. 4B) (P. aeruginosa PAO1 [1]) | reduction of bacterial load / bacterial counts (P. aeruginosa PAO1 [1]) | anti-infective activity (FIG. 4E) (A. baumannii ATCC19606) | decrease of bacterial counts compared to untreated controls (A. baumannii ATCC19606) | outer membrane permeabilization (NPN) (B. fragilis ATCC25285) | outer membrane permeabilization (NPN) (P. aeruginosa PAO1 [2]) | outer membrane permeabilization (NPN) (S. epidermidis)
1 | MLPKSFIKLLRSKVSSFLRPYK [SCUB3-MLP22] | inhibitory activity | 3 orders of magnitude | reduced infections | 3 orders of magnitude | – | – | –
2 | SKEMFPRSFIKLLRSKVSRFLRPYK [SCUB1-SKE25] | inhibitory activity | 3 orders of magnitude | reduced infections | 3 orders of magnitude | permeabilized | permeabilized | permeabilized
